Results taken from patent US9028845B2, “Chimeric immunomodulatory compounds and methods of using the same-IV” (Dynavax Technologies Corporation, priority 2001, dated 2015).
Strand notation (5' to 3'): a small letter for the sugar, then the base; units joined by * are phosphorothioate-linked, units joined directly phosphodiester-linked; [ ] holds rarer units or linkages, { } end groups; capitals alone tell only the bases. d = 2'-deoxy (DNA)

Assays:
CD19+ B cells = assay: Human B cell proliferation assay (3H-thymidine incorporation); details: 2 μg/ml; for cpm1 / cpm2 / cpm3 / mean cpm / mean of both: B cells
mouse splenocytes = assay: Mouse splenocyte cytokine secretion (IL-6, IL-12, IFN by ELISA); assay type: cell-based, BALB/c mice; parameters: IFN: unit not given beside the values; details: 24 h
Method: Polynucleotides and chimeric compounds were tested for immunostimulatory activity on mouse splenocytes. Immunostimulation was assessed by measurement of cytokine secretion into the culture media. Cytokine levels in the culture supernatant were determined by enzyme-linked immunosorbent assay (ELISA) tests.
Cells were isolated and prepared using standard techniques. Spleens of 8 to 20 week-old BALB/c mice were harvested and the splenocytes isolated using standard teasing and treatment with ACK lysing buffer from BioWhittaker, Inc. Four spleens were pooled in this experiment. Isolated cells were washed in RPMI 1640 media supplemented with 2% heat-inactivated fetal calf serum (FCS), 50 μM 2-mercaptoethanol, 1% penicillin-streptomycin, and 2 mM L-glutamine and resuspended at approximately […] in 10% FCS/RPMI (RPMI 1640 media with 10% heat-inactivated FCS, 50 μM 2-mercaptoethanol, 1% penicillin-streptomycin, and 2 mM L-glutamine).
Cell cultures were set up in triplicate with approximately 7×10^5 cells/well in a 96-well flat microtiter plate in 100 μl 10% FCS/RPMI with the cells allowed to rest for at lest 1 hour after plating. The indicated test compounds were incubated (at the indicated concentrations) for 24 hours at 37° C. Cell supernatants were harvested and frozen at −80° C. Cytokine production by the cells was determined by ELISAs, as shown in 19.

In the case of “5′-TGACTGTGAACCTTAGAGATGA-3′ (SEQ ID NO: 3) (dT*dG*dA*dC*dT*dG*dT*dG*dA*dA*dC*dC*dT*dT*dA*dG*dA*dG*dA*dT*dG*dA) [Compound P-7, negative control, reference compound]”, the “B cell proliferation, in words” value (CD19+ B cells; 48 h plus 8 h 3H-thymidine pulse) is reported as “little to no B cell proliferation”, the cpm1 (CD19+ B cells; Donor 146, Experiment A) is reported as 4858 cpm and the cpm2 (CD19+ B cells; Donor 146, Experiment A) is reported as 5810 cpm. For the same substance, the cpm3 (CD19+ B cells; Donor 146, Experiment A) was 7079 cpm, the mean cpm (CD19+ B cells; Donor 146 mean, Experiment A) was 5916 cpm and the cpm1 (CD19+ B cells; Donor 147, Experiment A) was 4364 cpm. It also gave a cpm2 (CD19+ B cells; Donor 147, Experiment A) of 4066 cpm, a cpm3 (CD19+ B cells; Donor 147, Experiment A) of 2774 cpm and a mean cpm (CD19+ B cells; Donor 147 mean, Experiment A) of 3735 cpm. The cpm1 (CD19+ B cells; donor 121, Experiment B) was 1623 cpm, the cpm2 (CD19+ B cells; donor 121, Experiment B) was 1821 cpm and the cpm3 (CD19+ B cells; donor 121, Experiment B) was 2901 cpm. The mean cpm (CD19+ B cells; donor 121 mean, Experiment B) was 2115 cpm, the cpm1 (CD19+ B cells; donor 194, Experiment B) was 1992 cpm and the cpm2 (CD19+ B cells; donor 194, Experiment B) was 1593 cpm. It also gave a cpm3 (CD19+ B cells; donor 194, Experiment B) of 1686 cpm, a mean cpm (CD19+ B cells; donor 194 mean, Experiment B) of 1757 cpm and a mean of both (CD19+ B cells; mean of Donors 146 and 147, Experiment A) of 4825 cpm. For the same substance, the mean of both (CD19+ B cells; mean of donors 121 and 194, Experiment B) was 1936 cpm, the IFN (mouse splenocytes; dose 1.0 μg/ml) was 30 and the IL-6 (mouse splenocytes; dose 1.0 μg/ml) was 7. For the same substance, the IL-12 (mouse splenocytes; dose 1.0 μg/ml) was 143, the IFN (mouse splenocytes; dose 5.0 μg/ml) was 23 and the IL-6 (mouse splenocytes; dose 5.0 μg/ml) was 9. It also gave an IL-12 (mouse splenocytes; dose 5.0 μg/ml) of 177.
